Reference: US8501722B2, “Methods and compositions for treating bacterial infection” (priority 2009, dated 2013)
Several values for one entry are separate records, joined by “and”; a condition that tells them apart may be missing. Equal entries are not always repeated. Where two headings read alike, the source gives them in different places.

How the values were obtained:
SK(+)GAS = assay: GAS growth by OD600 nm of culture; type: cell-based, Group A Streptococcus; settings: for activity at 0.1 µg/mL: read-out: GAS Growth (% control), compound conc. 0.1 μg/ml; for activity at 0.3 µg/mL: read-out: GAS Growth (% control), compound conc. 0.3 μg/ml; for activity at 2.5 µg/mL: read-out: GAS Growth (% control), compound conc. 2.5 μg/ml; for activity at 5 µg/mL: read-out: GAS Growth (% control), compound conc. 5 μg/ml; for activity at 10 µg/mL: read-out: GAS Growth (% control), compound conc. 10 μg/ml; for activity at 20 µg/mL: read-out: GAS Growth (% control), compound conc. 20 μg/ml; for activity at 40 µg/mL: read-out: GAS Growth (% control), compound conc. 40 μg/ml; for activity at 70 µg/mL: read-out: GAS Growth (% control), compound conc. 70 μg/ml; for activity at 30 µg/mL: read-out: GAS Growth (% control), compound conc. 30 μg/ml
SK(+)GAS (UMAA2616) = assay: Survival of human plasminogen transgenic (Tg+) mice infected with GAS; type: in vivo; settings: UMAA2616 infection; 575096 5 μg per day, 1S-22207 30 μg per day, intraperitoneally daily for 5 days, starting one day after infection
Procedure: To examine the in vivo efficacy of compounds CCGC, CCGE, and CCGF, Tg+ mice were first infected with 6*10^5 CFU SK(+)GAS, then injected with 5 μg of test compound per mouse intraperitoneally daily for 5 days, starting one day after infection. […] In some embodiments, small compound are delivered continuously through an ALZET® Osmotic Pump (DURECT Corporation, Cupertino, Calif.).
Tg+ mice are then used to test the efficacy of compounds in attenuating the virulence of GAS infection. 20 Tg+ mice are infected with 10^5 CFU of SK(+)GAS then injected with the estimated experimental doses of the compounds two hours later. Survival is monitored for 9 days, while a control group of Tg+ mice will be infected with SK(+)GAS injected with DMSO. The comparison of mortalities between the two groups is analyzed as described above in the toxicity test. Treating mice with compound post-infection helps avoid potential side-effects of toxic or growth inhibition of compound on SK(+)GAS at the time of infection. As a result, the effect of compound on mice survival is a more authentic reflection of the efficacy of compound on inhibiting GAS virulence. Possible scenarios include:
This example describes the in vivo efficacy of compound 575096. Human plasminogen transgenic mice (Tg+) were first infected with 10^5″^6 CFUUMAA2616, then injected with 5-30 lag of test compound per mouse intraperitoneally daily for 5 days, starting one day after infection.

SKKanGAS = assay: Growth-based turbidometric screen, SKKanGAS under kanamycin (kanamycin resistance gene under ska promoter); type: cell-based, Group A Streptococcus; settings: preliminary screening with 2,000 known compounds (The Spectrum Collection)
Description: A GAS strain was generated to have kanamycin resistance gene under the control of ski promoter to be used to screen for SK inhibitors. A transgenic GAS has been generated in SK(+)GAS host so that kanamycin resistance gene is driven by ska promoter in an extrachromosomal plasmid. The engineered GAS strain (SKKanGAS) was also kanamycin resistant. This kanamycin resistance gene in SK(−)GAS strain is within the omega-Km2 element whose promoter is independent of ska promoter (Khil et al., J. Infect. Dis. 2003; 188:497-505; Ringdahl et al., J. Biol. Chem. 1998; 273:6424-6430). As a result, SK(−)GAS can serve as a control in the screen for SK promoter to weed out compounds that inhibit GAS growth or interfere with kanamycin resistance protein function. […] A cutoff criterion was set to select compounds that can inhibit 50% growth in SKKanGAS while inhibiting less than 10% growth in SK(−)GAS. A total of 95 compounds met this criterion. As a result, these compounds were chosen for dose response assays and pIC50 of growth inhibition of each hit compound was then estimated. […] An example is given as FIG. 10.
Only SKKanGAS is used for screening in the primary screening. Briefly, 30 μl THY medium containing 20 μg/ml kanamycin is first plated into 384-well plates (384 microtiter plate, Corning #3701) and compounds are added into the wells. SKKanGAS strain is grown to OD600 nm=0.8. SKKanGAS is then diluted 12.5 fold into 20 μg/ml kanamycin THY medium. SKKanGAS mixture (10 μl) is added into each well of the 384-well plates. […] The plates are cultured at 37° C. for 16-20 hours. Growth of bacteria in each well is measured by absorbance at 600 nm. Z′>0.5, which is compatible with high throughput screening, has been typically obtained with the 384-well plate format in which 55,000 small compounds have been screened. […] SKKanGAS is a BSL2 level agent and can be stored at −80° C. SKKanGAS can be cultured at 37° C. in THY or Bill medium which is commercially available (Fisher Scientific, Pittsburgh, Pa.).
Once hit compounds have been identified by the primary screening, they are applied to dose response assays with both SKKanGAS and SK(−)GAS stains. SKKanGAS and SK(−)GAS are grown in 20 μg/ml kanamycin with serial dilution of hit compounds (DMSO final concentration=1% in THY medium). Plates are incubated at 37° C. for 15-20 hours in a climate controlled room (humidity 50%). The absorbance is measured at 600 nm. pIC50 of growth inhibition of each hit compound is then determined. Compounds that with at least 10 fold lower IC50 in SKKanGAS than SK(−)GAS strain are identified and subjected to secondary confirmatory assay. As a result, dose response assay identifies and eliminates most nonspecific compounds that may inhibit GAS growth or interfere with kanamycin resistance protein function.

Procedure for streptokinase (SK): SK− Ecoli and SKCtr1's dose response relationship with these compounds were then examined.
The effects of 10 hit compounds out of the 23 identified were further tested by dose response assays. […] These compounds were tested for inhibition of ska expression by measuring SK activity in supernatants of GAS exposed to the test compound or control vehicle alone (DMSO). SK(+)GAS were cultured with hit compounds at a dose range of 10 nM to 100 μM at 37° C. for 16-20 hours. Supernatants of SK(+)GAS cultures were measured for SK activity using chromogenic substrate 2403 (Diapharma group Inc., West Chester, Ohio), according to the manufacturer's instruction and simultaneously monitored for nonspecific effects on GAS growth by measuring OD600 nm.
The positive compounds identified in dose response assays are subjected to SK assay to identify compounds inhibiting SK expression in SK(+)GAS. Briefly, SK(+)GAS is grown at the presence of hit compounds at a dose range determined by dose response assays within which SK(−) GAS growth is inhibited less than 10% while SKKanGAS growth is inhibited more than 50% under 20 μg/ml kanamycin.

SMILES	activity at 0.1 µg/mL (SK(+)GAS; Streptococcus)	activity at 0.3 µg/mL (SK(+)GAS; Streptococcus)	activity at 5 µg/mL (SK(+)GAS; Streptococcus)	activity at 10 µg/mL (SK(+)GAS; Streptococcus)	activity at 20 µg/mL (SK(+)GAS; Streptococcus)	activity at 40 µg/mL (SK(+)GAS; Streptococcus)	activity at 70 µg/mL (SK(+)GAS; Streptococcus)	SK Expression (% control) (streptokinase (SK); compound conc. 0.1 μg/ml)	SK Expression (% control) (streptokinase (SK); compound conc. 0.3 μg/ml)	SK Expression (% control) (streptokinase (SK); compound conc. 1.0 μg/ml)	SK Expression (% control) (streptokinase (SK); compound conc. 3 μg/ml)	SK Expression (% control) (streptokinase (SK); compound conc. 5 μg/ml)	SK Expression (% control) (streptokinase (SK); compound conc. 10 μg/ml)	SK Expression (% control) (streptokinase (SK); compound conc. 20 μg/ml)	SK Expression (% control) (streptokinase (SK); compound conc. 40 μg/ml)	further results
C=CCn1c(SCC#N)nc2c(c1=O)C(C)(C)Cc1ccccc1-2 [1S-22207]	96%	98%	98%	96%	99%	113%	126%	103 % control and 108 % control and 97 % control and 95 % control	103 % control and 104 % control and 95 % control and 108 % control	102 % control and 108 % control and 99 % control and 77 % control	62 % control and 46 % control and 83 % control and 47 % control	64 % control and 49 % control and 80 % control	39 % control and 38 % control and 29 % control and 33 % control and 34 % control	31 % control and 27 % control	22 % control and 25 % control and 40 % control	activity at 2.5 µg/mL (SK(+)GAS; Streptococcus): 100%; survival of Tg+ mice compared to DMSO control group (SK(+)GAS (UMAA2616)): significant improvement in survival
C=CCn1c(SCCCC)nc2c(c1=O)C1(CCCCC1)Cc1ccccc1-2 [compound 575096]	97%	102%	101%	102%	84%	–	–	77 % control and 83 % control and 95 % control	108 % control and 95 % control and 127 % control	65 % control and 69 % control and 84 % control	61 % control and 62 % control and 69 % control	50 % control	–	–	68 % control and 51 % control and 69 % control and 76 % control	activity at 1 µg/mL (SK(+)GAS; Streptococcus, read-out: GAS Growth (% control), compound conc. 1 μg/ml): 102%; activity at 3 µg/mL (SK(+)GAS; Streptococcus, read-out: GAS Growth (% control), compound conc. 3 μg/ml): 100%; survival of Tg+ mice compared to DMSO control group (SK(+)GAS (UMAA2616)): significant improvement in survival; SK Expression (% control) (streptokinase (SK); compound conc. 50 μg/ml): 65 % control and 66 % control and 83 % control; SK Expression (% control) (streptokinase (SK); compound conc. 70 μg/ml): 40 % control and 61 % control
CC[C@H]1OC(=O)[C@H](C)[C@@H](O[C@H]2C[C@@](C)(OC)[C@@H](O)[C@H](C)O2)[C@H](C)[C@@H](O[C@@H]2O[C@H](C)C[C@H](N(C)C)[C@H]2O)[C@](C)(O)C[C@@H](C)C(=O)[C@H](C)[C@@H](O)[C@]1(C)O [erythromycin, reference compound]	–	–	–	–	–	–	–	–	–	–	–	–	–	–	–	SKKanGAS growth susceptibility to known antibiotics (SKKanGAS): susceptible
C=CCn1c(SCCOC)nc2c(c1=O)C(C)(C)c1ccccc1-2 [CCG-203572, 3-allyl-2-(2-methoxyethylthio)-5,5-dimethyl-3H-indeno[1,2-d]pyrimidin-4(5H)-one]	101%	101%	97%	97%	96%	87%	96%	100 % control and 128 % control	101 % control and 129 % control	102 % control and 134 % control	102 % control and 75 % control	21 % control	–	10 % control	9 % control	activity at 2.5 µg/mL (SK(+)GAS; Streptococcus): 101%; GAS Growth (% control) (SK(+)GAS; compound conc. 0.3 μg/ml): 101 % control
C=CCn1c(SCC)nc2c(c1=O)C(C)(C)Cc1ccccc1-2 [1S-26137]	–	–	89%	89%	91%	98%	–	–	–	–	–	21 % control	20 % control	22 % control	19 % control	activity at 30 µg/mL (SK(+)GAS; Streptococcus): 105%
C=CCn1c(SCCN(C)C)nc2c(c1=O)C1(CCCCC1)Cc1ccccc1-2 [CCG-102495, 3-allyl-2-(2-(dimethylamino)ethylthio)-3H-spiro[benzo[h]quinazoline-5,1′-cyclohexan]-4(6H)-one]	–	–	–	–	18%	–	–	–	–	–	–	–	–	17 % control	–	–
C=CCn1c(SCC(=O)OCC)nc2c(c1=O)C(C)(C)Cc1ccccc1-2 [1S-30398]	–	–	98%	98%	99%	111%	–	–	–	–	–	42 % control	36 % control	38 % control	39 % control	–
CCn1c(SCc2ccccc2)nc2c(c1=O)C1(CCCC1)Cc1ccccc1-2 [AK968]	–	–	–	96%	105%	117%	130%	–	–	–	–	–	83 % control	64 % control	54 % control	activity at 30 µg/mL (SK(+)GAS; Streptococcus): 112%; activity at 50 µg/mL (SK(+)GAS; Streptococcus, read-out: GAS Growth (% control), compound conc. 50 μg/ml): 124%; activity at 60 µg/mL (SK(+)GAS; Streptococcus, read-out: GAS Growth (% control), compound conc. 60 μg/ml): 123%; SK Expression (% control) (streptokinase (SK); compound conc. 30 μg/ml): 57 % control; SK Expression (% control) (streptokinase (SK); compound conc. 50 μg/ml): 40 % control; SK Expression (% control) (streptokinase (SK); compound conc. 60 μg/ml): 33 % control; SK Expression (% control) (streptokinase (SK); compound conc. 70 μg/ml): 45 % control
C=CCn1c(SCc2ccc(NC(C)=O)cc2)nc2c(c1=O)C1(CCCCC1)Cc1ccccc1-2 [CCG-102491, N-(4-((3-allyl-4-oxo-4,6-dihydro-3H-spiro[benzo[h]quinazoline-5,1′-cyclohexane]-2-ylthio)methyl)phenyl)acetamide]	–	–	109%	–	–	112%	–	–	–	–	–	85 % control	–	–	96 % control	–
C=CCn1c(SC)nc2c(c1=O)C1(CCCCC1)Cc1ccccc1-2 [CCG-102620, 3-Allyl-2-(methylthio)-3H-spiro[benzo[h]quinazoline-5,1′-cyclohexan]-4(6H)-one]	–	–	104%	106%	104%	115%	–	–	–	–	–	62 % control	50 % control	33 % control	27 % control	–
